Data from patent US20240294551A1 (AMGEN INC., priority 2022, published 2024).
Read-outs that look alike come from different tables or passages of the source.

How the values were obtained:
[1] = target: His-tagged KRAS G12D protein (Homo sapiens (Human), UniProt P01116, G12D); experiment: KRAS G12D TR-FRET Assay; type: binding
In short: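 His-tagged KRAS G12D (diluted to 20 nM in pH 7.4 HEPES buffer with 10 mM MgCl2 and 10 μM GDP) was preincubated with titrated compound for 30 min at room temperature. Biotinylated KRPep-2d peptide (diluted to 20 nM) was then added for 1 h, and displacement was monitored by TR-FRET.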

[2] = target: GDP-bound KRAS protein (aa 1-169), containing both G12D and C118A amino acid substitutions (Homo sapiens (Human), UniProt P01116, C118A/G12D); experiment: KRAS G12D Coupled Nucleotide Exchange Assay; type: biochemical
[3] = test system: Phosphorylation of ERK1/2 in AsPC-1 cells; experiment: Phospho-ERK1/2 MSD Assay; type: cell-based, human; details: Homo sapiens, ASPC1, 2 h
Method: AsPC-1 (ATCC® CRL-1682™) cells were cultured in RPMI 1640 Medium (ThermoFisher Scientific 11875093) containing 10% fetal bovine serum (ThermoFisher Scientific 16000044) and 1× penicillin-streptomycin-glutamine (ThermoFisher Scientific 10378016). Sixteen hours prior to compound treatment, AsPC-1 cells were seeded in 96-well cell culture plates at a density of 25,000 cells/well and incubated at 37° C., 5% CO2. A compound dose-response titration was diluted in growth media, added to appropriate wells of a cell culture plate, and then incubated at 37° C., 5% CO2 for 2 hours. Following compound treatment, cells were washed with ice-cold Dulbecco's phosphate-buffered saline, no Ca^2+ or Mg^2+ (ThermoFisher Scientific 14190144), and then lysed in RIPA buffer (50 mM Tris-HCl pH 7.5, 1% Igepal, 0.5% sodium deoxycholate, 150 mM NaCl, and 0.5% sodium dodecyl sulfate) containing protease inhibitors (Roche 4693132001) and phosphatase inhibitors (Roche 4906837001). Phosphorylation of ERK1/2 in compound-treated lysates was assayed using Phospho-ERK1/2 Whole Cell Lysate kits (Meso Scale Discovery K151DWD) according to the manufacturer's protocol. Assay plates were read on a Meso Scale Discovery Sector Imager 6000, and data were analyzed using a 4-parameter logistic model to calculate IC50 values.

[4] = read-out: KRAS G12D Binding IC50
[5] = read-out: KRAS G12D Coupled Exchange IC50
[6] = read-out: 2 h p-ERK (AsPC-1 cells), IC50
[7] = TR-FRET, read-out: KRAS G12D Binding
[8] = 2 hours compound pre-incubation, read-out: KRAS G12D Coupled Exchange
[9] = read-out: 2 h p-ERK (AsPC-1 cells)

His-tagged KRAS G12D protein, sequence (P01116 other isoform, or with tags, fused parts or gaps G12D): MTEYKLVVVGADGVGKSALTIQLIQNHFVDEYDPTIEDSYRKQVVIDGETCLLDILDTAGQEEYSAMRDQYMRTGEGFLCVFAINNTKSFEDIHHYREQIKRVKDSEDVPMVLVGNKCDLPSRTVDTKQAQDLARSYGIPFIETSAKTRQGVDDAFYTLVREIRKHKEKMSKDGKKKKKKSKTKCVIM
GDP-bound KRAS protein (aa 1-169), containing both G12D and C118A amino acid substitutions, sequence (P01116 other isoform, or with tags, fused parts or gaps G12D/C118A): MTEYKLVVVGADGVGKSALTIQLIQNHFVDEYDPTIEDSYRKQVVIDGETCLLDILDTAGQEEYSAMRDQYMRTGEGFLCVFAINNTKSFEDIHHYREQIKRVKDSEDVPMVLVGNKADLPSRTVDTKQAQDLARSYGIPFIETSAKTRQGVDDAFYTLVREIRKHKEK

| IC50 [1, 4] [nM] | IC50 [2, 5] [nM] | IC50 [3, 6] [nM] | IC50 [1, 7] [nM] | IC50 [2, 8] [nM] | IC50 [3, 9] [nM] | Structure (SMILES) |
| --- | --- | --- | --- | --- | --- | --- |
| 20 | 18 | 1140 | – | – | – | Cc1c2ncc3c(nc(OCC4CN(C)CCO4)nc13)N1CCC[C@](C)(C1)NC(=O)CCCc1c(F)ccc3cc(O)cc-2c13 (mixture of isomers) [Example 24] |
| 7 | 5 | 116 | – | – | – | Cc1cc2[nH]ncc2c2c1CCC[C@H](F)C(=O)N[C@@H]1CCCN(C1)c1nc(OC[C@@]34CCCN3C[C@H](F)C4)nc3c(F)c-2ncc13 (mixture of isomers) [Example 49, (17R)-14,30-difluoro-24-(((2R,7aS)-2-fluorotetrahydro-1H-pyrrolo[1,2-a]pyrrol-7a(5H)-yl)methoxy)-9-methyl-5,6,16,21,23,25,29-heptaazahexacyclo[24.3.1.1~17,21~.0~2,10~.0~3,7~.0~22,27~]hentriaconta-1(30),2,4,7,9,22,24,26,28-nonaen-15-one] |
| 19 | 14 | 1380 | – | – | – | Cc1cc2[nH]ncc2c2c1CCCC(F)C(=O)N[C@@H]1COCCN(C1)c1nc(OC[C@@]34CCCN3C[C@H](F)C4)nc3c(F)c-2ncc13 (mixture of isomers) [Example 55] |
| 46 | 34 | 1660 | – | – | – | Cc1cc2[nH]ncc2c2c1CCCCC(=O)N[C@]1(C)COCCN(C1)c1nc(OC[C@@]34CCCN3C[C@H](F)C4)nc3c(F)c-2ncc13 (mixture of isomers) [Example 67] |
| – | – | 213 | – | – | – | Cc1cc2[nH]ncc2c2c1CCCOC(=O)N1CC[C@@H]3CCN(C[C@@H]31)c1nc(OC[C@@]34CCCN3C[C@H](F)C4)nc3c(F)c-2ncc13 (mixture of isomers) [Example 75, (28S,32R)-33-fluoro-4-(((2R,7aS)-2-fluorotetrahydro-1H-pyrrolo[1,2-a]pyrrol-7a(5H)-yl)methoxy)-18-methyl-23-oxa-1,3,5,9,14,15,25-heptaazaheptacyclo[23.5.2.1~6,10~.0~2,7~.0~11,19~.0~12,16~.0~28,32~]tritriaconta-2,4,6,8,10(33),11,13,16,18-nonaen-24-one] |
| 31 | 32 | 1990 | – | – | – | Cc1cc2[nH]ncc2c2c1CCCC(=O)OCC1(O)CCCN(C1)c1nc(OC[C@@]34CCCN3C[C@H](F)C4)nc3c(F)c-2ncc13 (mixture of isomers) [Example 103] |
| – | – | – | 155 | 29 | 1690 | CC12CN(CCO1)c1nc(OC[C@@]34CCCN3C[C@H](F)C4)nc3c(F)c(ncc13)-c1c(c(Cl)cc3[nH]ncc13)CCCc1nc2co1 (mixture of isomers) [Example 380] |
| – | – | – | 13 | 8 | 75.4 | Fc1c2ncc3c(nc(OC[C@@]45CCCN4C[C@H](F)C5)nc13)N1CCC[C@H](C1)Cn1ncc(n1)[C@@H]1C[C@@H]1c1c(Cl)cc3[nH]ncc3c1-2 (mixture of isomers) [Example 383] |
| 38 | 36 | 2460 | – | – | – | Cc1cc2[nH]ncc2c2c1CCCOC(=O)O[C@@H]1C[C@H](F)CN(C1)c1nc(OC[C@@]34CCCN3C[C@H](F)C4)nc3c(F)c-2ncc13 (racemic) [Example 95] |
| 67 | 54 | 1380 | – | – | – | Cc1cc2[nH]ncc2c2c1CCCOC(=O)OC1CC[C@@H]3CC[C@H]1N3c1nc(OC[C@@]34CCCN3C[C@H](F)C4)nc3c(F)c-2ncc13 (racemic) [Example 96] |
| 19 | 12 | 346 | – | – | – | Cc1cc2[nH]ncc2c2c1[C@H]1C[C@@H]1COC(=O)O[C@@H]1CCCN(C1)c1nc(OC[C@@]34CCCN3C[C@H](F)C4)nc3c(F)c-2ncc13 (racemic) [Example 114] |
| 9 | 5 | 78.8 | – | – | – | O=C1OCCCc2c(Cl)cc3[nH]ncc3c2-c2ncc3c(nc(OC[C@@]45CCCN4C[C@H](F)C5)nc3c2F)N2C[C@H]3C[C@H]3[C@H](C2)O1 (racemic) [Example 179] |
| 3270 | 1000 | 10000 | – | – | – | O=C1N[C@H]2CC[C@@H](O)CN(C2)c2nc(OC[C@@]34CCCN3C[C@H](F)C4)nc3c(F)c(ncc23)-c2c(c(Cl)cc3[nH]ncc23)CCCO1 (racemic) [Example 283, (26S,29R)-18-chloro-32-fluoro-4-(((2R,7aS)-2-fluorotetrahydro-1H-pyrrolo[1,2-a]pyrrol-7a(5H)-yl)methoxy)-29-hydroxy-23-oxa-1,3,5,9,14,15,25-heptaazahexacyclo[24.4.1.1~6,10~.0~2,7~.0~11,19~.0~12,16~]dotriaconta-2,4,6(32),7,9,11,13,16,18-nonaen-24-one] |
| 17 | 12 | 270 | – | – | – | O=C1OC/C=C/c2c(Cl)cc3[nH]ncc3c2-c2ncc3c(nc(OC[C@@]45CCCN4C[C@H](F)C5)nc3c2F)N2CCC[C@H](C2)O1 (single isomer, unassigned) [Example 116] |
| 6 | 5 | 79.6 | – | – | – | Cc1cc2[nH]ncc2c2c1CCCC(F)C(=O)N[C@@H]1CCCCN(C1)c1nc(OC[C@@]34CCCN3C[C@H](F)C4)nc3c(F)c-2ncc13 (single isomer, unassigned) [Example 159] |
| 22 | 18 | 496 | – | – | – | Cc1cc2[nH]ncc2c2c1C[C@@H](C)COC(=O)O[C@@H]1CCCN(C1)c1nc(OC[C@@]34CCCN3C[C@H](F)C4)nc3c(F)c-2ncc13 (single isomer, unassigned) [Example 214] |
| 15 | 12 | 108 | – | – | – | Cc1cc2[nH]ncc2c2c1C[C@H](C)COC(=O)O[C@@H]1CCCN(C1)c1nc(OC[C@@]34CCCN3C[C@H](F)C4)nc3c(F)c-2ncc13 (single isomer, unassigned) [Example 215] |
| 119 | 141 | 1460 | – | – | – | O=C1CCCOc2ccc3[nH]ncc3c2-c2ncc3c(nc(OC[C@@]45CCCN4C[C@H](F)C5)nc3c2F)N2CCC[C@H](C2)O1 [Example 30, (17R)-30-Fluoro-24-(((2R,7aS)-2-fluorotetrahydro-1H-pyrrolo[1,2-a]pyrrol-7a(5H)-yl)methoxy)-11,16-dioxa-5,6,21,23,25,29-hexaazahexacyclo[24.3.1.1˜17,21˜.0˜2,10˜.0˜3,7˜.0˜22,27˜]hentriaconta-1(30),2,4,7,9,22,24,26,28-nonaen-15-one] |
| – | – | 590 | – | – | – | O=C1OCCc2c(Cl)cc3[nH]ncc3c2-c2ncc3c(nc(OC[C@@]45CCCN4C[C@H](F)C5)nc3c2F)N2CCC[C@@]3(C[C@H](CO3)O1)C2 [Example 314, (1R,4R)-11-chloro-33-fluoro-25-(((2R,7aS)-2-fluorotetrahydro-1H-pyrrolo[1,2-a]pyrrol-7a(5H)-yl)methoxy)-2,5,7-trioxa-14,15,20,24,26,28-hexaazaheptacyclo[26.3.1.1~1,4~.1~19,23~.0~10,18~.0~13,17~.0~22,27~]tetratriaconta-10,12,15,17,19(33),20,22,24,26-nonaen-6-one] |
| – | – | – | 3730 | 1810 | – | Fc1c2ncc3c(nc(OC[C@@]45CCCN4C[C@H](F)C5)nc13)N1CCC[C@@H](C1)c1cnc(o1)CCCc1c(Cl)cc3[nH]ncc3c1-2 [Example 386, (18S)-9-chloro-31-fluoro-25-(((2R,7aS)-2-fluorotetrahydro-1H-pyrrolo[1,2-a]pyrrol-7a(5H)-yl)methoxy)-33-oxa-5,6,15,22,24,26,30-heptaazaheptacyclo[25.3.1.1~14,17~.1~18,22~.0~2,10~.0~3,7~.0~23,28~]tritriaconta-1(31),2,4,7,9,14,16,23,25,27,29-undecaene] |
| – | – | – | 3960 | 1020 | – | Fc1c2ncc3c(nc(OC[C@@]45CCCN4C[C@H](F)C5)nc13)N1CCO[C@@H](C1)c1coc(n1)CCCc1c(Cl)cc3[nH]ncc3c1-2 [Example 389, (18S)-9-chloro-31-fluoro-25-(((2R,7aS)-2-fluorotetrahydro-1H-pyrrolo[1,2-a]pyrrol-7a(5H)-yl)methoxy)-15,19-dioxa-5,6,22,24,26,30,33-heptaazaheptacyclo[25.3.1.1~14,17~.1~18,22~.0~2,10~.0~3,7~.0~23,28~]tritriaconta-1(31),2,4,7,9,14(33),16,23,25,27,29-undecaene] |
| – | – | – | 1810 | 1170 | – | Fc1c2ncc3c(nc(OC[C@@]45CCCN4C[C@H](F)C5)nc13)N1CCO[C@@H](COCC[C@H]3C[C@H]3c3c(Cl)cc4[nH]ncc4c3-2)C1 [Example 393, (11R,13R,18R)-9-chloro-31-fluoro-25-(((2R,7aS)-2-fluorotetrahydro-1H-pyrrolo[1,2-a]pyrrol-7a(5H)-yl)methoxy)-16,19-dioxa-5,6,22,24,26,30-hexaazaheptacyclo[25.3.1.1~18,22~.0~2,10~.0~3,7~.0~11,13~.0~23,28~]dotriaconta-1(31),2,4,7,9,23,25,27,29-nonaene] |
